Measured values as given in US20260183411A1, “TARGETING SORTILIN” (priority 2024, published 2026).
Values belong to the molecule of their own block, whether it stands above or below them. Where no end group is shown, it is not given here. [ ]: non-standard residue; d: D form. Cba = N[C@@H](CC1CCC1)C(=O)O; Tle = CC(C)(C)[C@H](N)C(=O)O

Key:
[1] = Murine hematotoxicity assay; assay type: in vivo, mouse; conditions: 3 mg/kg i.v. QW×4, BALB/c mice
Method: (§1) Murine hematotoxicity experiments were conducted at Charles River Laboratories and the care and use of animals was conducted in accordance with the regulations of the Association for Assessment and Accreditation of Laboratory Animal Care (AAALAC). Wild type BALB/c, female, 7-8 weeks, weighing approximately 18-22 g were randomized and dosed intravenously with control or test articles at a QW×4 schedule. Dosing volume was adjusted based on body weight and was administered at 10 mL/Kg. PDCs were dissolved in 25 mM Histidine 10% sucrose pH 7 and 3 mg/kg was administered. Free MMAE payload was also tested, and similarly dissolved in 25 mM Histidine 10% sucrose pH 7 and administered to the mice at a dose of […] by i.v. injection at a QW×4 schedule. 3 days following each dose, 150 μL of whole blood was collected via submandibular method and placed in K2 EDTA tubes stored on ice. Blood neutrophil counts were performed on the day of collection by IDEXX labs. Body weights were recorded twice a week until study endpoint.
as §1, with “As outlined in the material” for “Murine hematotoxicity experiments were conducted at Charles River Laboratories”, “methods” for “the care and use”, “Example 1, wild” for “animals was conducted in accordance with the regulations of the Association for Assessment and Accreditation of Laboratory Animal Care (AAALAC). Wild”, “PDCs were dissolved in 25 mM Histidine 10% sucrose pH 7 and 3 mg/kg was administered.” left out

MDA-MB-231 xenograft = assay: MDA-MB-231 murine xenograft efficacy model; assay type: in vivo, mouse
Method: Murine xenograft experiments were conducted at WuXi AppTec and/or Charles River Laboratories and the care and use of animals was conducted in accordance with the regulations of the Association for Assessment and Accreditation of Laboratory Animal Care (AAALAC). MDA-MB-231 tumor cells (ATCC, Manassas, VA, cat #HTB-26) were grown and maintained in L15 medium supplemented with 10% heat inactivated fetal bovine serum, 1% Antibiotic-Antimycotic, and L-glutamine (2 mM) at 37° C. in an atmosphere in 5% CO2, 95% air. BALB/c Nude, female, 6-8 weeks, weighing approximately 18-22 g were purchased from Vital River Laboratory Animal Technology Co., LTD. Mice were inoculated subcutaneously at the right flank with MDA-MB-231 tumor cells (e.g., triple negative breast cancer cells) (10×10^6) in 0.2 mL of PBS with Matrigel (1:1) for tumor development. Animals were randomized and treatment was started when the average tumor volume reached approximately 150-200 mm^3 for the efficacy study. Dosing volume was adjusted based on body weight and was administered at 10 mL/Kg. […] Free MMAE payload was also tested, and similarly dissolved in 25 mM Histidine 10% sucrose pH 7 and one or more of the following doses, 0.6, 0.06 mg/kg, were administered to the mice i.v. at a QW×4 schedule. Tumor sizes were measured twice weekly in two dimensions using a caliper, and the volume in mm^3 calculated using the formula: V=0.5 a×b^2, where a and b are the long and short diameters of the tumor, respectively. TGI was calculated for each group using the formula: TGI (%)=[1−(Ti−T0)/(Vi−V0)]×100; where Ti is the average tumor volume of a treatment group on a given day, TO is the average tumor volume of the treatment group on the first day of treatment, Vi is the average tumor volume of the vehicle control group on the same day with Ti, and V0 is the average tumor volume of the vehicle group on the first day of treatment.
To characterize the effects of the MMAE payload alone, we included free MMAE at molar equivalency to PDCs, and tested at 0.6 and 0.06 mg/kg, as separate arms.
To characterize the effects of the MMAE payload alone, we included free MMAE at molar equivalency to PDCs, and tested at 0.6 mg/kg.

[2] = Murine serum stability assay; assay type: in vitro ADME, mouse; conditions: mouse, serum; linear peptides, Table 11; read-out: Murine serum stability assay, T1/2
Method: Serum was drawn from male CD-1 mice by Pharmidex. Lyophilized peptides were solubilized in DMSO and then further diluted into male mouse (CD-1) serum at 37° C. in duplicates. The reaction was incubated at 37° C. and samples extracted at 6 time points: 0, 0.16, 0.5, 1, 3, and 6 hrs. Acetonitrile (ACN) with an internal standard (tolbutamide) was added to stop the incubation. Samples were centrifuged, and the supernatant was analyzed by HPLC-MS/MS for the parent compound.

[3] = Dynamic light scattering (solubility/aggregation); assay type: physicochemical; conditions: working concentrations (250 nM, PBS, pH 7.4)
Method: Samples were spun down on a bench top centrifuge, 15 minutes, 15,000 rpm, room temperature, to pellet any aggregated peptide/dust before taking a measurement. Visual inspection of the tubes was used to identify if any large pellets were formed, which is indicative of large aggregates. […] The plate was then transferred and read on the DLS instrument (Wyatt Technology DynaPro Plate Reader III) at 25° C.

cyno SORT1 (76-753)-His = biological target: T1, cyno SORT1 (76-753)-His (cyno, UniProt A0A2K5VHG2 74-751); assay: SPR (Biacore 8K), SORT1 on CM5 chip, unconjugated peptide with conjugation handles as analyte, 1:1 model
T1 construct: range 76-753; Amine-coupled to CM5 chip for SPR
T1 sequence: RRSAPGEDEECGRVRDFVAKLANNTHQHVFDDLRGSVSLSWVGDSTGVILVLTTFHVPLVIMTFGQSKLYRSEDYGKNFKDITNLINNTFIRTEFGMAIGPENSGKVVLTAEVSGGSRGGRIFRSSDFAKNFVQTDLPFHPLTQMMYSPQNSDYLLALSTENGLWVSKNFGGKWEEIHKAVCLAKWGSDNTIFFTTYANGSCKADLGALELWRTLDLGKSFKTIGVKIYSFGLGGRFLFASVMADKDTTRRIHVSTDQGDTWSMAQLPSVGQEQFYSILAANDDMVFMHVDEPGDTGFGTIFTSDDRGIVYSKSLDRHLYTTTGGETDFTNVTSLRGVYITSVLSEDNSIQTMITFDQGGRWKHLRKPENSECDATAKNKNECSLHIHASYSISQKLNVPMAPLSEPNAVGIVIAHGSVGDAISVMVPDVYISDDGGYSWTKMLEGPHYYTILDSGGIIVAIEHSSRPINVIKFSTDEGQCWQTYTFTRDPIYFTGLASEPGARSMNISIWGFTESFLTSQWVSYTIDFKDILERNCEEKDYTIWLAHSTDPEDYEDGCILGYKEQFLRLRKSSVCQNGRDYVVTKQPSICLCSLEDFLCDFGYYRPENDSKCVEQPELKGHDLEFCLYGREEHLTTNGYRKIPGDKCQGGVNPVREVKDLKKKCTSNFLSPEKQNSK
Method: (§2) SPR analysis was performed on Series S CM5 chips (Cytiva) using a Biacore 8K instrument (Cytiva). Sensorgrams were double-referenced by subtracting the response on both a reference flow cell and a blank sample. Human SORT1 (78-755)-His (Acrobiosystems), human SORT1 (78-755)-His(GenScript), mouse SORT1 (76-753)-His (R&D Systems), rat SORT1 (76-752)-His (GenScript), and cyno SORT1 (76-753)-His (GenScript) were diluted to 20-60 μg/mL in 10 mM sodium acetate pH 4.5 buffer and immobilized onto Series S CM5 chips using amine coupling at a flow rate of 10 μL/min for 45-100 s.
(§3) Ten start-up cycles and a blank cycle preceded each analysis run. The runs were performed by sequential injections of analyte (0-20 nM, 3-fold serial dilutions) with a 90 s association and 900 s dissociation at a flow rate of 30 μL/min, followed by two regeneration cycles with 2 M MgCl2 for 90 s at a flow rate of 10 μL/min. […] Five start-up cycles and a blank cycle preceded each analysis run. The runs were performed by sequential injections of analyte (0-25 nM) with a 150 seconds (s) association and 300 s dissociation at a flow rate of 30 μL/min, followed by a regeneration with 2 M MgCl₂ for 200 s at a flow rate of 10 μL/min. The kinetic rate constants (kₐ and kd) and the equilibrium binding constant (Kd) were calculated using a 1:1 kinetic binding model on the Biacore Insight Evaluation Software (Cytiva).
(§4) SPR analysis was performed on Series S CM5 chips (Cytiva) using a Biacore 8K instrument (Cytiva). Sensorgrams were double-referenced by subtracting the response on both a reference flow cell and a blank sample. The SPR analysis was conducted using four different SORT1 species: Human SORT1, Mouse SORT1, Rat SORT1, and Cyno SORT1. The samples were prepared according to the general procedure described above herein. The kinetic rate constants (ka and […]) and the equilibrium binding constant (Kd) were calculated using a 1:1 kinetic binding model on the Biacore Insight Evaluation Software (Cytiva).

rat SORT1 (76-752)-His = biological target: T2, rat SORT1 (76-752)-His (rat, UniProt O54861 76-752); assay: as above
T2 construct: range 76-752; Amine-coupled to CM5 chip for SPR
T2 sequence (looked up): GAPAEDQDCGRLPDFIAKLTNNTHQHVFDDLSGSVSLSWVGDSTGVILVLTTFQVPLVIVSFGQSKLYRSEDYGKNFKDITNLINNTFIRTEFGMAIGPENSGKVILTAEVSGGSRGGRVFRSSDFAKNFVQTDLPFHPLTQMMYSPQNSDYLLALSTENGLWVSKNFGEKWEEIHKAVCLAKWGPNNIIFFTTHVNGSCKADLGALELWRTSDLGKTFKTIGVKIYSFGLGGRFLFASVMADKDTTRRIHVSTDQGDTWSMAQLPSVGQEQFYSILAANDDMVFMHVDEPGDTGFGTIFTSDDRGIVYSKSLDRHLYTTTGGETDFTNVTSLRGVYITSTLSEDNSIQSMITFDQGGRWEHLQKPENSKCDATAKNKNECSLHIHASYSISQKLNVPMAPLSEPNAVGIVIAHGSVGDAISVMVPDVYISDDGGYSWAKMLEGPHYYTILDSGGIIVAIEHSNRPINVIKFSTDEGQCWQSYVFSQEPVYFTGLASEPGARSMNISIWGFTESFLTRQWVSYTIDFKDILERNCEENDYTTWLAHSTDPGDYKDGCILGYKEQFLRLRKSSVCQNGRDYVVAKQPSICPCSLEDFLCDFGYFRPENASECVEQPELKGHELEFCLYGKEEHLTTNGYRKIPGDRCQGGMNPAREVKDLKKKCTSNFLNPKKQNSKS
Method: as §2, §3, §4

Molecule: CC[C@H](C)[C@@H]([C@@H](CC(=O)N1CCC[C@H]1[C@H](OC)[C@@H](C)C(=O)N[C@H](C)[C@@H](O)c1ccccc1)OC)N(C)C(=O)[C@@H](NC(=O)[C@H](C(C)C)N(C)C(=O)OCc1ccc(NC(=O)[C@H](CCCNC(N)=O)NC(=O)[C@@H](NC(=O)CCCC(=O)NCCC(=O)N(C)CC(=O)N(C)CC(=O)N(C)CC(=O)N(C)CC(=O)N[C@@H](C)C(=O)N2CCC[C@H]2C(=O)N[C@@H](CCCNC(=N)N)C(=O)N[C@@H](Cc2c[nH]c3ccccc23)C(=O)N[C@@H](CC(=O)O)C(=O)N[C@@H](C)C(=O)N2CCC[C@H]2C(=O)N[C@@H](CC(C)C)C(=O)N[C@@H](CCCNC(=N)N)C(=O)N[C@@H](CC(=O)O)C(=O)N2CCC[C@H]2C(=O)N[C@@H](C)C(=O)N[C@@H](CC(C)C)C(=O)N[C@@H](CCCNC(=N)N)C(=O)N[C@@H](CCC(N)=O)C(=O)N[C@H](C(=O)N[C@@H](CC2CCC2)C(=O)O)C(C)(C)C)C(C)C)cc1)C(C)C [Arb-SAR-Q15-PDC]
blood neutrophil counts compared to vehicle or MMAE treatment [1]: reduced neutrophil counts | tumor growth inhibited relative to vehicle (MDA-MB-231 xenograft; 3 mg/kg i.v. QW×4, day 22): 98% | body weight loss (Example 8) (MDA-MB-231 xenograft; PDCs 3 mg/kg, free MMAE at molar equivalency (0.6 mg/kg)): body weight loss tracked each other

Molecule: CC(C)C[C@H](NC(=O)[C@H](CCCNC(=N)N)NC(=O)[C@H](CC(C)C)NC(=O)[C@H](C)NC(=O)[C@H](CC(C)C)NC(=O)[C@H](CCCNC(=N)N)NC(=O)[C@H](CCC(N)=O)NC(=O)[C@H](CC(C)C)NC(=O)[C@H](C)NC(=O)[C@@H]1CCCN1C(=O)[C@H](Cc1c[nH]c2ccccc12)NC(=O)[C@@H]1CCCN1C(=O)[C@H](C)NC(=O)[C@H](CCCNC(=N)N)NC(=O)[C@@H]1CCCN1C(=O)[C@H](CC(=O)O)NC(=O)[C@@H](N)CC(=O)O)C(=O)O [PRGN_RL]
half-life [2]: 27.7 min | solubility (DLS) [3]: good solubility

Results, then the molecule that gave them:

half-life [2]: 3.16 min | solubility (DLS) [3]: good solubility
Molecule: CC(C)C[C@H](NC(=O)[C@H](CC(C)C)NC(=O)[C@H](CCC(N)=O)NC(=O)[C@H](CCCNC(=N)N)NC(=O)[C@H](CC(C)C)NC(=O)[C@H](C)NC(=O)[C@@H]1CCCN1C(=O)[C@H](CC(=O)O)NC(=O)[C@H](CCCNC(=N)N)NC(=O)[C@H](CC(C)C)NC(=O)[C@@H]1CCCN1C(=O)[C@H](C)NC(=O)[C@H](CC(=O)O)NC(=O)[C@H](Cc1c[nH]c2ccccc12)NC(=O)[C@H](CCCNC(=N)N)NC(=O)[C@@H]1CCCN1C(=O)[C@H](C)N)C(=O)O [PRGN_WT]

Kd (cyno SORT1 (76-753)-His): 152 pM | Kd (rat SORT1 (76-752)-His): 757 pM
B1: SORT1 peptide 2 (w/conjugation handles), unconjugated (peptide)
peptide: APRWDAPLRDPALRQ[Tle][Cba]
modifications: also: conjugation handles, not given here
notes: also called Arb-SAR-Q15
